Reference: PubChem BioAssay AID248 (DTP/NCI, 2004)
Values joined by “and” are separate entries in the source; they are usually repeats but may differ in a detail not shown here. Identical values can stand only once. Inconclusive results and toxic doses are left out. Cut-off read from the data, not from the text of the source: active = T/C of 150% or more; inactive = T/C below 125%.

System: L1210 leukemia ip in BDF1 mice, survival T/C
Assay: NCI In Vivo Anticancer Drug Screen. Data for tumor model L1210 Leukemia (intraperitoneal) in B6D2F1 (BDF1) mice
Settings: endpoint: mean survival time, higher = longer survival
Method in brief: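 Tumor cells were implanted, animals were treated, and survival was followed. The result divides the treated measurement by the vehicle-control measurement.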

[1] = dose: 10.0 mg/kg/injection, schedule: Q01DX001 (ip), vehicle: saline
[2] = dose: 20.0 mg/kg/injection, schedule: Q01DX001 (ip), vehicle: saline
[3] = dose: 40.0 mg/kg/injection, schedule: Q01DX001 (ip), vehicle: saline
[4] = dose: 100.0 mg/kg/injection, schedule: Q01DX001 (ip), vehicle: saline
[5] = dose: 200.0 mg/kg/injection, schedule: Q01DX001 (ip), vehicle: saline
[6] = dose: 100.0 mg/kg/injection, schedule: Q01DX001 (ip), vehicle: Klucel (hydroxypropylcellulose) (HPC)
[7] = dose: 100.0 mg/kg/injection, schedule: Q01DX009 (ip), vehicle: Klucel (hydroxypropylcellulose) (HPC)
[8] = dose: 200.0 mg/kg/injection, schedule: Q01DX001 (ip), vehicle: Klucel (hydroxypropylcellulose) (HPC)
[9] = dose: 200.0 mg/kg/injection, schedule: Q01DX009 (ip), vehicle: Klucel (hydroxypropylcellulose) (HPC)
[10] = dose: 400.0 mg/kg/injection, schedule: Q01DX001 (ip), vehicle: Klucel (hydroxypropylcellulose) (HPC)
[11] = dose: 400.0 mg/kg/injection, schedule: Q01DX009 (ip), vehicle: Klucel (hydroxypropylcellulose) (HPC)
[12] = dose: 100.0 mg/kg/injection, schedule: Q01DX001 (ip), vehicle: other
[13] = dose: 200.0 mg/kg/injection, schedule: Q01DX001 (ip), vehicle: other
[14] = dose: 400.0 mg/kg/injection, schedule: Q01DX001 (ip), vehicle: other

Measured: T/C

CCC1C(=O)OC2(CO)C(=O)N(C)CCC12 (stereo not drawn)
inactive: dose: 15.6 mg/kg/injection, schedule: Q01DX001 (ip), vehicle: saline 103 % of control | dose: 31.3 mg/kg/injection, schedule: Q01DX001 (ip), vehicle: saline 103 % of control | dose: 62.5 mg/kg/injection, schedule: Q01DX001 (ip), vehicle: saline 91 % of control | dose: 125.0 mg/kg/injection, schedule: Q01DX001 (ip), vehicle: saline 94 % of control

CC(C)(C)CNC(C)(C)C
inactive: dose: 5.0 mg/kg/injection, schedule: Q01DX001 (ip), vehicle: saline 109 % of control | [1] 103 % of control | [2] 100 % of control | [3] 103 % of control | dose: 50.0 mg/kg/injection, schedule: Q04DX002 (ip), vehicle: saline 112 % of control | dose: 80.0 mg/kg/injection, schedule: Q01DX001 (ip), vehicle: saline 105 % of control | dose: 100.0 mg/kg/injection, schedule: Q04DX002 (ip), vehicle: saline 104 % of control | dose: 200.0 mg/kg/injection, schedule: Q04DX002 (ip), vehicle: saline 95 % of control

CCOC(=O)C(C(C)=O)C(c1ccc(N(C)C)cc1)C(C(C)=O)C(=O)OCC (stereo not drawn)
inactive: dose: 25.6 mg/kg/injection, schedule: Q04DX002 (ip), vehicle: saline with Tween-80 97 % of control | dose: 64.0 mg/kg/injection, schedule: Q04DX002 (ip), vehicle: saline with Tween-80 93 % of control | dose: 100.0 mg/kg/injection, schedule: Q04DX003 (ip), vehicle: saline with Tween-80 89 % of control | dose: 160.0 mg/kg/injection, schedule: Q04DX002 (ip), vehicle: saline with Tween-80 93 % of control | dose: 200.0 mg/kg/injection, schedule: Q04DX003 (ip), vehicle: saline with Tween-80 92 % of control | dose: 400.0 mg/kg/injection, schedule: Q04DX002 (ip), vehicle: saline with Tween-80 89 % of control | dose: 400.0 mg/kg/injection, schedule: Q04DX003 (ip), vehicle: saline with Tween-80 95 % of control

Cc1ccc(S(=O)(=O)F)cc1C(=O)Nc1ccc(OCCCc2c(N)nc(N)nc2N)cc1
inactive: dose: 37.5 mg/kg/injection, schedule: Q01DX001 (ip), vehicle: Klucel (hydroxypropylcellulose) (HPC) 96 % of control | dose: 75.0 mg/kg/injection, schedule: Q01DX001 (ip), vehicle: Klucel (hydroxypropylcellulose) (HPC) 94 % of control | dose: 150.0 mg/kg/injection, schedule: Q01DX001 (ip), vehicle: Klucel (hydroxypropylcellulose) (HPC) 98 % of control

CCOC1(O)C(=O)c2ccccc2OC1(OCC)c1ccccc1 (stereo not drawn)
inactive: dose: 50.0 mg/kg/injection, schedule: Q01DX001 (ip), vehicle: saline 93 % of control | [4] 96 % of control | [5] 96 % of control | dose: 400.0 mg/kg/injection, schedule: Q01DX001 (ip), vehicle: saline 98 % of control

Cc1ccc(N)cc1
inactive: [4] 114 % of control | [5] 102 % of control

CC(C)(C)OC(=O)C(=[N+]=[N-])C(=O)OC(C)(C)C
inactive: [6] 97 % of control | [7] 102 % of control | dose: 100.0 mg/kg/injection, schedule: Q04DX003 (ip), vehicle: Klucel (hydroxypropylcellulose) (HPC) 98 % of control | [8] 97 % of control | [9] 105 % of control | dose: 200.0 mg/kg/injection, schedule: Q04DX003 (ip), vehicle: Klucel (hydroxypropylcellulose) (HPC) 104 % of control | [10] 90 % of control | [11] 105 % of control | dose: 400.0 mg/kg/injection, schedule: Q04DX003 (ip), vehicle: Klucel (hydroxypropylcellulose) (HPC) 104 % of control

Cc1cccc2c1NC(c1ccccc1)C(C)S2(=O)=O (stereo not drawn)
inactive: dose: 50.0 mg/kg/injection, schedule: Q01DX001 (ip), vehicle: Klucel (hydroxypropylcellulose) (HPC) 106 % of control | [6] 96 % of control | [8] 102 % of control | [10] 96 % of control

O=C(COc1ccc(Cl)cc1Cl)OC(=O)COc1ccc(Cl)cc1Cl
inactive: dose: 12.5 mg/kg/injection, schedule: Q01DX009 (ip), vehicle: carboxymethylcellulose (CMC) 100 % of control and 106 % of control | dose: 25.0 mg/kg/injection, schedule: Q01DX009 (ip), vehicle: carboxymethylcellulose (CMC) 102 % of control and 103 % of control | dose: 50.0 mg/kg/injection, schedule: Q01DX001 (ip), vehicle: carboxymethylcellulose (CMC) 92 % of control | dose: 50.0 mg/kg/injection, schedule: Q04DX003 (ip), vehicle: carboxymethylcellulose (CMC) 92 % of control | dose: 100.0 mg/kg/injection, schedule: Q01DX001 (ip), vehicle: carboxymethylcellulose (CMC) 97 % of control | dose: 100.0 mg/kg/injection, schedule: Q01DX009 (ip), vehicle: carboxymethylcellulose (CMC) 94 % of control | dose: 100.0 mg/kg/injection, schedule: Q04DX002 (ip), vehicle: Klucel (hydroxypropylcellulose) (HPC) 95 % of control | dose: 100.0 mg/kg/injection, schedule: Q04DX002 (ip), vehicle: carboxymethylcellulose (CMC) 97 % of control and 100 % of control | dose: 100.0 mg/kg/injection, schedule: Q04DX003 (ip), vehicle: carboxymethylcellulose (CMC) 94 % of control | dose: 200.0 mg/kg/injection, schedule: Q01DX001 (ip), vehicle: carboxymethylcellulose (CMC) 89 % of control | dose: 200.0 mg/kg/injection, schedule: Q04DX002 (ip), vehicle: Klucel (hydroxypropylcellulose) (HPC) 95 % of control | dose: 200.0 mg/kg/injection, schedule: Q04DX002 (ip), vehicle: carboxymethylcellulose (CMC) 97 % of control and 98 % of control | dose: 400.0 mg/kg/injection, schedule: Q04DX002 (ip), vehicle: Klucel (hydroxypropylcellulose) (HPC) 98 % of control

O=C(Nc1cccc2nsnc12)c1ccc(C(=O)Nc2cccc3nsnc23)cc1
inactive: [12] 94 % of control | [13] 88 % of control | [14] 98 % of control

Cc1ccc(S(=O)(=O)C(Cl)(Cl)Cl)cc1
inactive: [6] 96 % of control | [7] 97 % of control | [8] 96 % of control | [9] 104 % of control | [10] 102 % of control | [11] 104 % of control

COc1ccc2c(c1)C1(C(=O)O)CC=CCC1(C(=O)O)C2 (stereo not drawn)
inactive: dose: 75.0 mg/kg/injection, schedule: Q01DX001 (ip), vehicle: saline 98 % of control | dose: 150.0 mg/kg/injection, schedule: Q01DX001 (ip), vehicle: saline 98 % of control | dose: 300.0 mg/kg/injection, schedule: Q01DX001 (ip), vehicle: saline 96 % of control

COc1ccc(C(=O)NC(=O)C(C(=O)c2ccc(OC)cc2)c2ccccc2)cc1 (stereo not drawn)
inactive: [12] 86 % of control

NC(=O)CNC(=O)CN1C(=O)c2ccccc2C1=O
inactive: [12] 103 % of control | [13] 103 % of control | [14] 103 % of control

FC(F)(F)c1nc(S)cc(=S)[nH]1
inactive: dose: 50.0 mg/kg/injection, schedule: Q01DX Z (ip), vehicle: methylcellulose (MC) 96 % of control | dose: 100.0 mg/kg/injection, schedule: Q01DX Z (ip), vehicle: methylcellulose (MC) 93 % of control

CCCCCCCCCCC[n+]1cccc(C#N)c1
inactive: dose: 5.0 mg/kg/injection, schedule: Q01DX009 (ip), vehicle: saline 101 % of control | [1] 94 % of control | dose: 10.0 mg/kg/injection, schedule: Q01DX009 (ip), vehicle: saline 93 % of control | dose: 10.0 mg/kg/injection, schedule: Q04DX003 (ip), vehicle: saline 98 % of control | [2] 101 % of control | dose: 20.0 mg/kg/injection, schedule: Q01DX009 (ip), vehicle: saline 95 % of control | dose: 20.0 mg/kg/injection, schedule: Q04DX003 (ip), vehicle: saline 93 % of control | [3] 108 % of control | dose: 40.0 mg/kg/injection, schedule: Q04DX003 (ip), vehicle: saline 95 % of control

COC1CC2C=CC1C2 (stereo not drawn)
inactive: dose: 50.0 mg/kg/injection, schedule: Q01DX009 (ip), vehicle: saline with Tween-80 92 % of control | dose: 100.0 mg/kg/injection, schedule: Q01DX009 (ip), vehicle: saline with Tween-80 89 % of control | dose: 200.0 mg/kg/injection, schedule: Q01DX009 (ip), vehicle: saline with Tween-80 92 % of control

CC(=O)N(O)CCCCCNC(=O)CCC(=O)N(O)CCCCCNC(=O)CCC(=O)N(O)CCCCCN
inactive: dose: 83.0 mg/kg/injection, schedule: Q03HX024 (ip), vehicle: water 103 % of control | dose: 125.0 mg/kg/injection, schedule: Q03HX024 (ip), vehicle: water 102 % of control | dose: 420.0 mg/kg/injection, schedule: Q03HX024 (ip), vehicle: clinical formulation 102 % of control | dose: 420.0 mg/kg/injection, schedule: Q03HX024 (ip), vehicle: water 95 % of control and 103 % of control
